Test results taken from patent publication US10745382B2 (BRISTOL-MYERS SQUIBB COMPANY, priority 2015, dated 2020).

molecular target: T1, PD-1/PD-L1 (Homo sapiens, UniProt Q9NZQ7); assay: PD-1/PD-L1 Homogenous Time-Resolved Fluorescence (HTRF) binding assay; conditions: PD-L1-His 10 nM, PD-1-Ig 20 nM; numeric IC50; read-out: Range or IC50
T1 construct: made in house; host or cells: HEK293T
Summary of the method: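 Binding was measured by HTRF in dPBS with 0.1% BSA and 0.05% Tween-20. Detection used europium cryptate anti-Ig (1 nM final) and APC anti-His (20 nM final) added over the binding reaction.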

T1 sequence (Q9NZQ7 with tags, fused parts or gaps): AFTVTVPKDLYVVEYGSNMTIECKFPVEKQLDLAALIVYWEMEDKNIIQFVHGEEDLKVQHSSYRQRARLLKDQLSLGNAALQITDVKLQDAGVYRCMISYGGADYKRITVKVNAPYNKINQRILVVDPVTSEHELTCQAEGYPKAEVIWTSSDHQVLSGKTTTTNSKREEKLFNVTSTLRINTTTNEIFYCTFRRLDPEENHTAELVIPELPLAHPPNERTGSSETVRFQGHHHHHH

IC50 [nM] | Structure (SMILES)
30 | Cc1c(COc2cc(OCc3cncc(C#N)c3)c(CN3CCCC[C@H]3C(=O)O)cc2Cl)cccc1-c1cccc(OCCCN2CCN(c3ccccn3)CC2)c1C [Example 2216, (2S)-1-(5-chloro-2-((5-cyanopyridin-3-yl)methoxy)-4-((2,2′-dimethyl-3′-(3-(4-(pyridin-2-yl)piperazin-1-yl)propoxy)biphenyl-3-yl)methoxy)benzyl)piperidine-2-carboxylic Acid]

same assay, conditions: PD-L1-His 10 nM, PD-1-Ig 20 nM; value given as range class; read-out: Range or IC50

IC50 [nM] | Structure (SMILES)
0.21 to 10 | CCN(Cc1cc(Cl)c(OCc2cccc(-c3cccc(OCCCN4CC[C@@H](O)C4)c3Cl)c2C)cc1OCc1cncc(C#N)c1)C(CO)CO [Example 2111, (R)-5-((4-chloro-5-((2′-chloro-3′-(3-(3-hydroxypyrrolidin-1-yl)propoxy)-2-methyl-[1,1′-biphenyl]-3-yl)methoxy)-2-(((1,3-dihydroxypropan-2-yl)(ethyl)amino)methyl)phenoxy)methyl)nicotinonitrile]
0.21 to 10 | Cc1c(COc2cc(OCc3cncc(C#N)c3)c(CNC(C)(CO)CO)cc2Cl)cccc1-c1cccc(OCCCN2CCC(F)(F)C2)c1C [Example 4117, 5-((4-chloro-5-((3′-(3-(3,3-difluoropyrrolidin-1-yl)propoxy)-2,2′-dimethyl-[1,1′-biphenyl]-3-yl)methoxy)-2-(((1,3-dihydroxy-2-methylpropan-2-yl)amino)methyl)phenoxy)methyl)nicotinonitrile]
0.21 to 10 | Cc1c(COc2cc(OCc3cncc(C#N)c3)c(CN[C@](C)(CO)C(=O)O)cc2Cl)cccc1-c1cccc(OCCCN2CCC(O)(CO)CC2)c1Cl [Example 2061, (R)-2-((5-chloro-4-((2′-chloro-3′-(3-(4-hydroxy-4-(hydroxymethyl)piperidin-1-yl)propoxy)-2-methyl-[1,1′-biphenyl]-3-yl)methoxy)-2-((5-cyanopyridin-3-yl)methoxy)benzyl)amino)-3-hydroxy-2-methylpropanoic Acid]
0.21 to 10 | Cc1c(COc2cc(OCc3cncc(C(N)=O)c3)c(CN[C@H](CO)C(=O)O)cc2Cl)cccc1-c1cccc(OCCCN2CCC(O)(C(=O)O)CC2)c1 [Example 1032, (R)-1-(3-((3′-((5-((5-carbamoylpyridin-3-yl)methoxy)-4-(((1-carboxy-2-hydroxyethyl)amino)methyl)-2-chlorophenoxy)methyl)-2′-methyl-[1,1′-biphenyl]-3-yl)oxy)propyl)-4-hydroxypiperidine-4-carboxylic Acid]
10 to 100 | Cc1c(COc2cc(OCc3cncc(C#N)c3)c(CN3CCCC[C@H]3C(=O)O)cc2Cl)cccc1-c1cccc(OCCCN[C@@H](Cc2ccncc2)C(=O)O)c1C [Example 2209, (2S)-1-(4-((3′-(3-((S)-1-carboxy-2-(pyridin-4-yl)ethylamino)propoxy)-2,2′-dimethylbiphenyl-3-yl)methoxy)-5-chloro-2-((5-cyanopyridin-3-yl)methoxy)benzyl)piperidine-2-carboxylic Acid]
0.21 to 10 | Cc1c(COc2cc(OCc3cncc(C#N)c3)c(CNC(CO)CO)cc2Cl)cccc1-c1cccc(OCCCN(C)C[C@H](O)CO)c1Cl [Example 2050, (S)-5-((4-chloro-5-((2′-chloro-3′-(3-((2,3-dihydroxypropyl)(methyl)amino)propoxy)-2-methyl-[1,1′-biphenyl]-3-yl)methoxy)-2-(((1,3-dihydroxypropan-2-yl)amino)methyl)phenoxy)methyl)nicotinonitrile]
0.21 to 10 | CC(=O)NC1CCN(CCCOc2cccc(-c3cccc(COc4cc(OCc5cncc(C#N)c5)c(CN5CCCC[C@H]5C(=O)O)cc4Cl)c3C)c2C)C1 (stereo partly drawn) [Example 2215, (2S)-1-(4-((3′-(3-(3-acetamidopyrrolidin-1-yl)propoxy)-2,2′-dimethylbiphenyl-3-yl)methoxy)-5-chloro-2-((5-cyanopyridin-3-yl)methoxy)benzyl)piperidine-2-carboxylic Acid]
0.21 to 10 | Cc1c(COc2cc(OCc3cncc(S(C)(=O)=O)c3)c(CN3CCCC[C@H]3C(=O)O)cc2Cl)cccc1-c1cccc(OCCCN2CCC(CO)(C(=O)O)C2)c1Cl (single isomer, unassigned) [Example 1065]
2010 to 10000 | Cc1c(COc2cc(OCc3cncc(C#N)c3)c(CN[C@@](C)(CO)C(=O)O)cc2Cl)cccc1-c1cc(OCCCN2CC[C@@H](O)C2)cc(OCCCN2CC[C@@H](O)C2)c1 [Example 3064, (S)-2-((4-((3′,5′-bis(3-((R)-3-hydroxypyrrolidin-1-yl)propoxy)-2-methyl-[1,1′-biphenyl]-3-yl)methoxy)-5-chloro-2-((5-cyanopyridin-3-yl)methoxy)benzyl)amino)-3-hydroxy-2-methylpropanoic Acid]
0.21 to 10 | CC(=O)N[C@@H]1CCN(CCCOc2cccc(-c3cccc(COc4cc(OCc5cncc(C#N)c5)c(CNC(C)(CO)CO)cc4Cl)c3C)c2C)C1 [Example 2290, (R)—N-(1-(3-((3′-((2-chloro-5-((5-cyanopyridin-3-yl)methoxy)-4-(((1,3-dihydroxy-2-methylpropan-2-yl)amino)methyl)phenoxy)methyl)-2,2′-dimethyl-[1,1′-biphenyl]-3-yl)oxy)propyl)pyrrolidin-3-yl)acetamide]
0.21 to 10 | Cc1c(COc2cc(OCc3cncc(C#N)c3)c(CN[C@H](CO)C(=O)O)cc2Cl)cccc1-c1cccc(OCCCN2CC(O)C2)c1C [Example 1080, (R)-2-((5-chloro-2-((5-cyanopyridin-3-yl)methoxy)-4-((3′-(3-(3-hydroxyazetidin-1-yl)propoxy)-2,2′-dimethyl-[1,1′-biphenyl]-3-yl)methoxy)benzyl)amino)-3-hydroxypropanoic Acid]

Further lines, the compound ahead of its results:

Structure (SMILES) | IC50 [nM]
Cc1c(COc2cc(OCc3cncc(C#N)c3)c(CN(CCO)CCCO)cc2Cl)cccc1-c1cccc(OCCCN2CCC(F)(F)C2)c1C [Example 4113] | 0.21 to 10
CCNC(=O)c1cccc(-c2cccc(COc3cc(OCc4cc(F)cc(F)c4)c(CNC(C)(CO)CO)cc3Cl)c2C)c1C [Example 4022, 3′-((2-chloro-5-((3,5-difluorobenzyl)oxy)-4-(((1,3-dihydroxy-2-methylpropan-2-yl)amino)methyl)phenoxy)methyl)-N-ethyl-2,2′-dimethyl-[1,1′-biphenyl]-3-carboxamide] | 100 to 2000
CCNC(=O)c1cccc(-c2cccc(COc3cc(OCc4cc(F)cc(F)c4)c(CN4CCCC[C@H]4C(=O)O)cc3Cl)c2C)c1C [Example 4017, (S)-1-(5-chloro-2-((3,5-difluorobenzyl)oxy)-4-((3′-(ethylcarbamoyl)-2,2′-dimethyl-[1,1′-biphenyl]-3-yl)methoxy)benzyl)piperidine-2-carboxylic Acid] | 100 to 2000
Cc1c(COc2cc(OCc3cncc(C#N)c3)c(CNC[C@H](O)CO)cc2Cl)cccc1-c1cccc(OCCCNC[C@H](O)CO)c1Cl [Example 2003, 5-((4-chloro-5-((2′-chloro-3′-(3-(((S)-2,3-dihydroxypropyl)amino)propoxy)-2-methyl-[1,1′-biphenyl]-3-yl)methoxy)-2-((((S)-2,3-dihydroxypropyl)amino)methyl)phenoxy)methyl)nicotinonitrile] | 0.21 to 10
Cc1c(COc2cc(OCc3cncc(C#N)c3)c(C=O)cc2Cl)cccc1-c1ccc2c(c1)OC(CCN1CC[C@H](O)C1)CO2 (mixture of isomers) [Example 1502, 5-((4-chloro-2-formyl-5-((3-(3-(2-((S)-3-hydroxypyrrolidin-1-yl)ethyl)-2,3-dihydrobenzo[b][1,4]dioxin-6-yl)-2-methylbenzyl)oxy)phenoxy)methyl)nicotinonitrile] | 10 to 100
Cc1c(COc2cc(OCc3cncc(C#N)c3)c(CN3CCCC[C@H]3C(=O)O)cc2Cl)cccc1-c1cccc(O[C@H](C)CCN2CC[C@@H](O)C2)c1C [Example 1526, (S)-1-(5-chloro-2-((5-cyanopyridin-3-yl)methoxy)-4-((3′-(((R)-4-((R)-3-hydroxypyrrolidin-1-yl)butan-2-yl)oxy)-2,2′-dimethyl-[1,1′-biphenyl]-3-yl)methoxy)benzyl)piperidine-2-carboxylic acid] | 0.21 to 10
COc1cc(OCc2cccc(-c3cccc(OCCCN4CC[C@@H](O)C4)c3C)c2C)c(Cl)cc1CN[C@](C)(CO)C(=O)O [Example 3034, (2R)-2-((5-chloro-4-((3′-(3-((R)-3-hydroxypyrrolidin-1-yl)propoxy)-2,2′-dimethyl-[1,1′-biphenyl]-3-yl)methoxy)-2-methoxybenzyl)amino)-3-hydroxy-2-methylpropanoic Acid] | 0.21 to 10
CCNC(=O)c1cccc(-c2cccc(COc3cc(OCc4cncc(C#N)c4)c(CN4CCCC[C@H]4C(=O)O)cc3Cl)c2C)c1C [Example 4006, (S)-1-(5-chloro-2-((5-cyanopyridin-3-yl)methoxy)-4-((3′-(ethylcarbamoyl)-2,2′-dimethyl-[1,1′-biphenyl]-3-yl)methoxy)benzyl)piperidine-2-carboxylic Acid] | 10 to 100
Cc1c(COc2cc(OCc3cncc(C#N)c3)c(CN3CCCC[C@H]3C(=O)O)cc2Cl)cccc1-c1cccc(OCCCN(C)Cc2ccccn2)c1C [Example 2228, (2S)-1-(5-chloro-2-((5-cyanopyridin-3-yl)methoxy)-4-((2,2′-dimethyl-3′-(3-(methyl(pyridin-2-ylmethyl)amino)propoxy)biphenyl-3-yl)methoxy)benzyl)piperidine-2-carboxylic Acid] | 10 to 100
Cc1c(COc2cc(OCc3cncc(C#N)c3)c(CN[C@](C)(CO)C(=O)O)cc2Cl)cccc1-c1cccc(OCCCNC(CO)(CO)CO)c1Cl [Example 2040, (R)-2-((5-chloro-4-((2′-chloro-3′-(3-((1,3-dihydroxy-2-(hydroxymethyl)propan-2-yl)amino)propoxy)-2-methyl-[1,1′-biphenyl]-3-yl)methoxy)-2-((5-cyanopyridin-3-yl)methoxy)benzyl)amino)-3-hydroxy-2-methylpropanoic Acid] | 0.21 to 10
